Data as given in a melting point compilation (Tetko et al.; mined from patent text by program, amines drawn as free bases though some values may be those of a salt).

Structure (SMILES)	melting point [°C]
COc1cc(Br)c(I)cc1OC	98 to 100
CCn1cc(F)c(N=CN(C)C)nc1=O	157 to 160
OCC1OC(n2cnc3c(-n4cccc4)ncnc32)C(O)C1O (stereo unspecified)	114 to 115
COc1ccccc1N1CCN(CCCNC(=O)c2cccc3c(=O)c(C)c(C4(c5ccccc5)CCCC4)oc23)CC1	171 to 172
C=CCNc1nc(NCC=C)nc(N(CCCCCCN(c2nc(NCC=C)nc(NCC=C)n2)C2CC(C)(C)NC(C)(C)C2)C2CC(C)(C)NC(C)(C)C2)n1	161 to 163
CCOc1cc(C(=O)OC)on1	77 to 79
COc1cccc2cc(C(=O)N[C@@H](CC(N)=O)C(=O)N[C@@H](Cc3ccccc3)[C@H](O)C(=O)N3C[C@@H](Cl)C[C@H]3C(=O)NC(C)(C)C)oc12	125 to 136
Cc1ccc(OCC(=O)c2ccc3c(c2)C(C)(C)CCC3(C)C)cc1O	144 to 145
CCCCc1nc(C(O)(CC)CC)c(C(=O)O)n1Cc1ccc(-c2ccccc2-c2nnn[nH]2)cc1	181 to 183
O=C1OC2(CCN(C(=O)Nc3cnc(-c4ccccc4)cn3)CC2)c2cc(F)ccc21	222 to 224
O=C(O)CCCN1CCN(C(=O)c2cc(C(F)(F)F)cc(C(F)(F)F)c2)[C@H](Cc2c[nH]c3ccccc23)C1	112 to 120
Cc1cccc(Cl)c1Nc1nc2ccc(-c3c(C)cccc3C)cc2n2cncc12	140 to 150
CCOC(=O)C(C)(C)Oc1ccc(CNc2ccccn2)cc1	78 to 79
COc1cc2c(cc1Nc1ncc(Cl)c(N[C@H]3[C@@H](C(N)=O)[C@@H]4C=C[C@H]3C4)n1)CCN(CCS(C)(=O)=O)CC2	132 to 146
Cc1cc2ncnn2nc1OCCC(C)(C)CCS(N)(=O)=O	143 to 144
CCCn1nc2c(N)nc3c(c2c1CCC1CCCCC1)CCCC3	173 to 174
CN(C)C(=O)CCSC(SCCC(=O)O)c1cccc(C=Cc2ccc3ccc(Cl)cc3n2)c1 (stereo unspecified)	153 to 155
CC(=O)CC(=O)Nc1ccc(Nc2ccccc2)cc1	89.5

Structure (SMILES)	melting point [°C]
O=C(CCC#Cc1ccccn1)Nc1ccc(F)cc1	190
CC(c1cc(Cl)cc(Cl)c1O)c1cc(F)cc(CO)c1O (stereo unspecified)	148
COCCc1nc2c(N)nc3c(c2n1CCCNC(=O)N1CCOCC1)CCCC3	172 to 173
CCOc1cc(C)cc2cc(C#N)c(=O)oc12	173
C[C@@H]1CN(CCCn2c3ccc(O)cc3c3c4c(c(-c5c(Cl)cccc5Cl)cc32)C(=O)NC4=O)C[C@H](C)N1	160 to 165
O=C1C2CCCN2S(=O)(=O)N1CCl (stereo unspecified)	46.5 to 47.5
Cn1c(=O)c2c(ncn2CCCN2CCC(NC(=O)c3ccc(F)cc3)CC2)n(C)c1=O	192 to 193
CCc1ccccc1OC(CC)C(=O)OC1CC(O)C=C2C=CC(C)C(CCC3CC(O)CC(=O)O3)C21 (mixture of isomers)	108 to 110
CCc1n[nH]c(CCOc2ccc(S(C)(=O)=O)cc2)c1Oc1cc(C#N)cc(C#N)c1	88 to 90
CCOC(=O)c1cc2ccc(Cl)cc2n1C	75.5 to 76.5
COc1ccc([C@@H]2Cc3c(cccc3C(F)(F)F)N(CC3=NCCN3C(=O)OC(C)(C)C)C(=O)[C@@H]2OC(C)=O)cc1	105 to 108
BrCc1ccc2c(c1)C1(c3ccccc3-2)c2ccccc2-c2ccc(CBr)cc21	175 to 177
Cc1ccc(S(=O)(=O)NCC(O)(Cn2cncn2)c2ccc(F)cc2F)cc1 (stereo unspecified)	130 to 136
CCCCCS(=O)(=O)NC(=O)/C=C/c1ccc(OCCOC)cc1Oc1ncc(NC(C)=O)cc1C	188
CC(=O)Nc1ccc2c(c1)C(C)(C)CCC2(C)C	116 to 118
C[C@@H](N)CNc1ccnc2cc(Cl)ccc12	145
CN(c1cccc2cc(-c3nccs3)[nH]c12)S(=O)(=O)c1cccnc1Cl	203
CCn1c(=O)c2c(nc(/C=C/c3ccc(O)c(O)c3)n2C)n(CC)c1=O	248
